How the values were obtained:
[1] = target: T1, Muscarinic acetylcholine receptor M1 (Homo sapiens, UniProt P11229); assay: ChEBML_1712853
T1 sequence (P11229 whole entry): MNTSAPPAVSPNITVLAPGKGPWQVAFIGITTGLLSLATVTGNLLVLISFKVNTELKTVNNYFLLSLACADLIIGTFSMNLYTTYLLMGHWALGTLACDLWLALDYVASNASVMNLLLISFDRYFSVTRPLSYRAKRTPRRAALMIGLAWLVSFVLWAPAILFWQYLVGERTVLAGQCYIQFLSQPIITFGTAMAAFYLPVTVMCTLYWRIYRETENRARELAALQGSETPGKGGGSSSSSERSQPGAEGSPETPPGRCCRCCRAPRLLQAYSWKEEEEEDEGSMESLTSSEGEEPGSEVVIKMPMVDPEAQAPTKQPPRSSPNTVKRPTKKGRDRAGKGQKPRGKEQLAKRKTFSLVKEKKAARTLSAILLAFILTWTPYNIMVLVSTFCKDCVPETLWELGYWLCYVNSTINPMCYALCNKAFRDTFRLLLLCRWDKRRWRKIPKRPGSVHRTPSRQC
Source text: Positive allosteric modulation of human muscarinic acetylcholine M1 receptor expressed in CHO-NFAT cells assessed as potentiation of acetylcholine-induced calcium mobilization after 4 hrs by CCF4-AM dye-based assay

[2] = target: T1, Muscarinic acetylcholine receptor M1; assay: Positive allosteric modulation of human muscarinic acetylcholine M1 receptor expressed in CHO cells assessed as potentiation of acetylcholine-induced calcium mobilization

SMILES	EC50 [1] [µM]	EC50 [2] [µM]
O=C(N[C@H]1CCCC[C@@H]1O)C1CN(Cc2ccc(-n3cccn3)cc2)c2ccccc2O1 (some centres not stated)	0.794	–
Cn1cc(-c2ccc(CN3CC(C(=O)N[C@H]4CCCC[C@@H]4O)Oc4ccccc43)cn2)cn1 (some centres not stated)	–	0.178

Reference: BindingDB's records for doi:10.1016/j.bmcl.2018.05.009 (Vanderbilt University Medical Center, 2018)
